Measurements as given in ChEMBL document CHEMBL5380857, “Discovery of Potent, Selective, and Orally Bioavailable Small-Molecule Inhibitors of CDK8 for the Treatment of Cancer” (J Med Chem, 2023).
Activity calls are given as the source filed them. No cut-off for these calls is given here.

How the values were obtained:
[1] = molecular target: Cyclin-dependent kinase 19 (Homo sapiens, UniProt Q9BWU1); assay: Inhibition of CDK19 (unknown origin)
[2] = Volume of distribution in CD-1 mouse at 5 mg/kg, po or 1 mg/kg, iv administered as single dose and measured for 24 hrs by LC-MS/MS analysis; format: ADME, organism-based; settings: in vivo
[3] = Clearance in Beagle dog assessed as liver blood flow at 1 mg/kg, po or 0.5 mg/kg, iv administered as single dose and measured for 24 hrs by LC-MS/MS analysis; format: ADME, organism-based, Canis lupus familiaris; settings: in vivo
[4] = Half life in Sprague-Dawley rat at 5 mg/kg, po or 1 mg/kg, iv administered as single dose and measured for 24 hrs by LC-MS/MS analysis; format: ADME, organism-based; settings: in vivo
MV4-11 [5] = assay: Induction of cell cycle arrest in human MV4-11 cells assessed as reduction in accumulation of cells at G2/M phase at 0.01 to 1 uM incubated for 48 hrs; format: functional, cell-based; settings: dose 0.01-1 µM
Cytochrome P450 2C9 = Cytochrome P450 2C9 (Homo sapiens, UniProt P11712); assay: Inhibition of CYP2C9 in human liver microsomes using diclofenac as substrate assessed as reduction in substrate hydroxylation incubated for 10 mins in presence of NADPH by LC-MS/MS analysis; format: ADME, Microsome
[6] = Bioavailability in Beagle dog at 1 mg/kg, po or 0.5 mg/kg, iv administered as single dose and measured for 24 hrs by LC-MS/MS analysis; format: ADME, organism-based, Canis lupus familiaris; settings: in vivo
[7] = molecular target: Dual specificity protein kinase CLK1 (Homo sapiens, UniProt P49759); assay: Binding affinity to CLK1 (unknown origin) assessed as dissociation constant by competitive binding assay
[8] = Half life in Beagle dog at 1 mg/kg, po or 0.5 mg/kg, iv administered as single dose and measured for 24 hrs by LC-MS/MS analysis; format: ADME, organism-based, Canis lupus familiaris; settings: in vivo
[9] = molecular target: Glycogen synthase kinase-3 alpha (Homo sapiens, UniProt P49840); assay: Binding affinity to GSK3A (unknown origin) assessed as dissociation constant by competitive binding assay
[10] = Half life in CD-1 mouse at 5 mg/kg, po or 1 mg/kg, iv administered as single dose and measured for 24 hrs by LC-MS/MS analysis; format: ADME, organism-based; settings: in vivo
MV4-11 [11] = assay: Antitumor activity against human MV4-11 cells xenografted in BALB/c nude mouse assessed as tumor growth inhibition at 3 mg/kg, po bid administered by gavage for 17 days and measured 3 times per week by caliper method relative to control; format: functional; settings: MV4-11, 408 h, time 17 day, read-out: TGI
[12] = Clearance in CD-1 mouse assessed as liver blood flow at 5 mg/kg, po or 1 mg/kg, iv administered as single dose and measured for 24 hrs by LC-MS/MS analysis; format: ADME, organism-based; settings: in vivo
[13] = Metabolic stability in rat liver microsomes assessed as intrinsic clearance at 1 uM preincubated for 10 mins followed by NADPH addition and measured for 60 mins by LC-MS/MS analysis; format: ADME, Microsome; settings: read-out: CLH
[14] = molecular target: Glycogen synthase kinase-3 beta (Homo sapiens, UniProt P49841)
Description: Binding affinity to GSK3B (unknown origin) assessed as dissociation constant by competitive binding assay

[15] = molecular target: Dual specificity protein kinase CLK2 (Homo sapiens, UniProt P49760); assay: Binding affinity to CLK2 (unknown origin) assessed as dissociation constant by competitive binding assay
[16] = Bioavailability in CD-1 mouse at 5 mg/kg, po or 1 mg/kg, iv administered as single dose and measured for 24 hrs by LC-MS/MS analysis; format: ADME, organism-based; settings: in vivo
[17] = (§1) Antitumor activity against mouse LL2 cells implanted in C57BL/6J syngeneic mouse model assessed as tumor growth inhibition at 1 mg/kg, po administered via gavage twice daily for 14 days in presence of mPDL1 antibody administered twice per week and measured 3 times a week by caliper method relative to control; format: functional; settings: Lewis lung carcinoma, 336 h, time 14 day, read-out: TGI
[18] = Clearance in Sprague-Dawley rat assessed as liver blood flow at 5 mg/kg, po or 1 mg/kg, iv administered as single dose and measured for 24 hrs by LC-MS/MS analysis; format: ADME, organism-based; settings: in vivo
Cytochrome P450 2C19 = Cytochrome P450 2C19 (Homo sapiens, UniProt P33261); assay: Inhibition of CYP2C19 in human liver microsomes using S-mephenytoin as substrate assessed as reduction in substrate hydroxylation incubated for 10 mins in presence of NADPH by LC-MS/MS analysis; format: ADME, Microsome
MV4-11 [19] = assay: Induction of cell cycle arrest in human MV4-11 cells assessed as accumulation of cells at G0/G1 phase at 0.01 to 1 uM incubated for 48 hrs; format: functional, cell-based; settings: dose 0.01-1 µM
MV4-11 [20] = assay: Antiproliferative activity against human MV4-11 cells assessed as inhibition of cell growth incubated for 10 days and replacement with fresh media with compounds on day 5 by CTG assay; format: functional, cell-based
[21] = Volume of distribution in Sprague-Dawley rat at 5 mg/kg, po or 1 mg/kg, iv administered as single dose and measured for 24 hrs by LC-MS/MS analysis; format: ADME, organism-based; settings: in vivo
MV4-11 [22] = assay: Induction of cell cycle arrest in human MV4-11 cells assessed as reduction in accumulation of cells at S phase at 0.01 to 1 uM incubated for 48 hrs; format: functional, cell-based; settings: dose 0.01-1 µM
CDK8/Cyclin C = CDK8/Cyclin C (Homo sapiens, UniProt P49336); assay: Inhibition of His tagged human recombinant CDK8/Cyclin C expressed in baculovirus expression system incubated for 15 mins by FRET-based LanthaScreen binding competition assay
Cytochrome P450 2D6 = Cytochrome P450 2D6 (Homo sapiens, UniProt P10635); assay: Inhibition of CYP2D6 in human liver microsomes using dextromethorphan as substrate assessed as reduction in substrate demethylation incubated for 10 mins in presence of NADPH by LC-MS/MS analysis; format: ADME, Microsome
MC-38 = assay: as §1, with “mouse MC-38” for “mouse LL2”, “at 3” for “at 1”, “gavage once” for “gavage twice”, “for 21” for “for 14”; format: functional; settings: MC-38, 504 h, time 21 day, read-out: TGI
Cytochrome P450 1A2 = molecular target: T1, Cytochrome P450 1A2 (Homo sapiens, UniProt P05177); assay: Inhibition of CYP1A2 in human liver microsomes using phenacetin as substrate assessed as reduction in substrate O-deethylation incubated for 10 mins in presence of NADPH by LC-MS/MS analysis; format: ADME, Microsome
T1 sequence (P05177 whole entry): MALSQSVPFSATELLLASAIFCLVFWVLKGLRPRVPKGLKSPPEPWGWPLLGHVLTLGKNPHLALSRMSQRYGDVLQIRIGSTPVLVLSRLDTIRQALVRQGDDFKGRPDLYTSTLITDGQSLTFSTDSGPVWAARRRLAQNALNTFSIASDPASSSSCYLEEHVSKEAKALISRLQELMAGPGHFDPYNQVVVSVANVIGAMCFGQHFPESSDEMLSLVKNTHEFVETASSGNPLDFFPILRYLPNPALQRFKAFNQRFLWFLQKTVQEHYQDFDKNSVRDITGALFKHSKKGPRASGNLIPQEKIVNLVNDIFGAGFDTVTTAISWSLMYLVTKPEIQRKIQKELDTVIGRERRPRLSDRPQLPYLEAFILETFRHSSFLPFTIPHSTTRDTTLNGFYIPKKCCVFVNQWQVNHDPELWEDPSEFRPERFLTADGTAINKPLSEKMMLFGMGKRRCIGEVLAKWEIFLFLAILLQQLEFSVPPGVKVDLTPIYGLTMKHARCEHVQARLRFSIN

Chain of Cytochrome P450 2C9 (P11712 whole entry): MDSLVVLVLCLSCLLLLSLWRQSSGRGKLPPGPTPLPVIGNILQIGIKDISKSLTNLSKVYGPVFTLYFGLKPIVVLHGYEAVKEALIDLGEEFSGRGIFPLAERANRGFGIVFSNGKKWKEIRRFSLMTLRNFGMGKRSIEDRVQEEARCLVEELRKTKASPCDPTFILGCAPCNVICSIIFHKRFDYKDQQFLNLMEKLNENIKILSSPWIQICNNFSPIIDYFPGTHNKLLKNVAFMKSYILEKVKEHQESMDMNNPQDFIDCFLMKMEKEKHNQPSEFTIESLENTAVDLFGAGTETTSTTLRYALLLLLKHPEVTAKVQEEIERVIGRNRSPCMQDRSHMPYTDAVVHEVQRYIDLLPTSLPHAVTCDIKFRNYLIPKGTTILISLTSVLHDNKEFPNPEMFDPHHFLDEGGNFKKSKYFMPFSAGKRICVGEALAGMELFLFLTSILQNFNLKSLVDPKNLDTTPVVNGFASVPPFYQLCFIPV
Chain of Cytochrome P450 2D6 (P10635 whole entry): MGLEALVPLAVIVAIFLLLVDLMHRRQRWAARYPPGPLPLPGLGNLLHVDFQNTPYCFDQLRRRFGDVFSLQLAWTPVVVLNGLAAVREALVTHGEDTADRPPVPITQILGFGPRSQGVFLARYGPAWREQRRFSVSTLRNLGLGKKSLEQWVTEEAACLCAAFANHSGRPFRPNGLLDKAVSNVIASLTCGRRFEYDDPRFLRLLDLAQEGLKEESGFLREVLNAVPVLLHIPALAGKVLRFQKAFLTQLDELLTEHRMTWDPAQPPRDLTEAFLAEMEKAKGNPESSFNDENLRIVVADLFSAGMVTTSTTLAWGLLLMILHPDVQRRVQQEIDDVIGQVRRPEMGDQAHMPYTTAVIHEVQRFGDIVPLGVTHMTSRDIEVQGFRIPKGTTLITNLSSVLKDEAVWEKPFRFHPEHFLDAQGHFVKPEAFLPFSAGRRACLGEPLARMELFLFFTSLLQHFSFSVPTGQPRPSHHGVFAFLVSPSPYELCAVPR
Chain of Glycogen synthase kinase-3 beta (P49841 whole entry): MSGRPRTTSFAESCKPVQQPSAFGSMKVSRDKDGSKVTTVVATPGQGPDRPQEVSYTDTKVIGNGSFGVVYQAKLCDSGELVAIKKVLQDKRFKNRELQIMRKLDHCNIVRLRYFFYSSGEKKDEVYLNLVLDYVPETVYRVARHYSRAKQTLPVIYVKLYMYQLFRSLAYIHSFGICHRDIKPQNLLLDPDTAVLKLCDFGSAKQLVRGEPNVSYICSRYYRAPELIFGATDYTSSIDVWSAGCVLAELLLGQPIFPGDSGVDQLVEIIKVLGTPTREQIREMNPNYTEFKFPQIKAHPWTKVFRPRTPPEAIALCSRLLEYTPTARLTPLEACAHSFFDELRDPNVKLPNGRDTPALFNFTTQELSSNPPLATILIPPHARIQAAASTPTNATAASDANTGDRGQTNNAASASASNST
Chain of Glycogen synthase kinase-3 alpha (P49840 whole entry): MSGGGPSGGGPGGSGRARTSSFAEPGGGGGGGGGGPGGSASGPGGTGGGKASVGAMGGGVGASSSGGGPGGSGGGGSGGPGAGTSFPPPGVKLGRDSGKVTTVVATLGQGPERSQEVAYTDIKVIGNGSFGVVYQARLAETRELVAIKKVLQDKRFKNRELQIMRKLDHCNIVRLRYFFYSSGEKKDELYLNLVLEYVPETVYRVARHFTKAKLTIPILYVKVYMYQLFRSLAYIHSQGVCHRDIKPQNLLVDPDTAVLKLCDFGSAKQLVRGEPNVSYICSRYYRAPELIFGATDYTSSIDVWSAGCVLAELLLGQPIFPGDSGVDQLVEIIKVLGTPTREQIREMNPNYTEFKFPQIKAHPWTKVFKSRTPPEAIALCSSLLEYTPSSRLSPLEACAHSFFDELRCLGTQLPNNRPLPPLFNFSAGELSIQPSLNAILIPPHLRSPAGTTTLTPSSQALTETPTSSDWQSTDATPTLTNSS
Chain of Cyclin-dependent kinase 19 (Q9BWU1 whole entry): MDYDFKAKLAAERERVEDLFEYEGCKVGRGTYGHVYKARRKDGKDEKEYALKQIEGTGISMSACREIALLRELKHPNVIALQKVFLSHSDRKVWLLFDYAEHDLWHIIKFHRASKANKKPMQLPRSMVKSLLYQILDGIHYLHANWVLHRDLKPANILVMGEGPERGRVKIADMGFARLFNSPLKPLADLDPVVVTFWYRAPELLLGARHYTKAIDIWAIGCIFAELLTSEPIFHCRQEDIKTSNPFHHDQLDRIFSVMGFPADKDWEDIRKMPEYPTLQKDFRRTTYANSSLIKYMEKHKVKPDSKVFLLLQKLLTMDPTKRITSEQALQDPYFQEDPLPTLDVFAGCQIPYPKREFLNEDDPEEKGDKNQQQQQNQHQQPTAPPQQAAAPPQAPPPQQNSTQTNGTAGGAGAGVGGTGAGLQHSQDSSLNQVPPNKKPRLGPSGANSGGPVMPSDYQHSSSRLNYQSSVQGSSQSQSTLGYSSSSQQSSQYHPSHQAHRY
Chain of CDK8/Cyclin C (P49336 whole entry): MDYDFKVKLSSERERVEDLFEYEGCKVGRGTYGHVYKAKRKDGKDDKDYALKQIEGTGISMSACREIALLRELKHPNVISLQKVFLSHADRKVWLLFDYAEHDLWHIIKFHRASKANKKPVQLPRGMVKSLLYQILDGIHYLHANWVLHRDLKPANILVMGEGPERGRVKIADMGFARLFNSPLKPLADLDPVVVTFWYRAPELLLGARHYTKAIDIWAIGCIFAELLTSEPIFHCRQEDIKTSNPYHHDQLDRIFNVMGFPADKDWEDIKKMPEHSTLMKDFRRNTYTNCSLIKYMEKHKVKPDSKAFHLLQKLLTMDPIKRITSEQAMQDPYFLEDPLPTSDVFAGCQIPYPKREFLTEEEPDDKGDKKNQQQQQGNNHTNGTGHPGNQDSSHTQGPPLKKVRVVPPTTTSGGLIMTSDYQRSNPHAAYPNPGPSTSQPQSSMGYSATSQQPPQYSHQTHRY
Chain of CDK8/Cyclin C (P24863 whole entry, further chain): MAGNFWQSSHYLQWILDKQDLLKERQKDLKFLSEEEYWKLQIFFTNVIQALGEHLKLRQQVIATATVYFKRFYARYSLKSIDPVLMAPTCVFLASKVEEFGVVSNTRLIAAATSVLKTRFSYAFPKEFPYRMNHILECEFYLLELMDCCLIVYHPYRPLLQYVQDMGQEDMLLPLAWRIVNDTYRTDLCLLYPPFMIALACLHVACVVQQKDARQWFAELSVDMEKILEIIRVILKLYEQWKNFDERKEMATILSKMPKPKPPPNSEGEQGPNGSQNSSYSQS
Chain of Dual specificity protein kinase CLK1 (P49759 whole entry): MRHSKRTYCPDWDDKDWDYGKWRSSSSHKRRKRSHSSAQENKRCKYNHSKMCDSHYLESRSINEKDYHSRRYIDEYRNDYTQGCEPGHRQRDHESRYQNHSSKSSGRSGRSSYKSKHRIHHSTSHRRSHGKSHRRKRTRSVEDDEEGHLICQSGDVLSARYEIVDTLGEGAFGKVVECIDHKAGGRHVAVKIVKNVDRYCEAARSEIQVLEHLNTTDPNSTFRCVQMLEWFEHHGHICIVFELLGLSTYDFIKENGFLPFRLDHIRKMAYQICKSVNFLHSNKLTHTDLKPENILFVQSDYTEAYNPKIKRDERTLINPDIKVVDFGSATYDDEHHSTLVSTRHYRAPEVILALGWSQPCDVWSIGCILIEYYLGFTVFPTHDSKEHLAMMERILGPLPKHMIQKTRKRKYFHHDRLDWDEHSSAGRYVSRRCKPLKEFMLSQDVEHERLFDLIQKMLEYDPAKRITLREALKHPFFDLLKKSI
Chain of Dual specificity protein kinase CLK2 (P49760 whole entry): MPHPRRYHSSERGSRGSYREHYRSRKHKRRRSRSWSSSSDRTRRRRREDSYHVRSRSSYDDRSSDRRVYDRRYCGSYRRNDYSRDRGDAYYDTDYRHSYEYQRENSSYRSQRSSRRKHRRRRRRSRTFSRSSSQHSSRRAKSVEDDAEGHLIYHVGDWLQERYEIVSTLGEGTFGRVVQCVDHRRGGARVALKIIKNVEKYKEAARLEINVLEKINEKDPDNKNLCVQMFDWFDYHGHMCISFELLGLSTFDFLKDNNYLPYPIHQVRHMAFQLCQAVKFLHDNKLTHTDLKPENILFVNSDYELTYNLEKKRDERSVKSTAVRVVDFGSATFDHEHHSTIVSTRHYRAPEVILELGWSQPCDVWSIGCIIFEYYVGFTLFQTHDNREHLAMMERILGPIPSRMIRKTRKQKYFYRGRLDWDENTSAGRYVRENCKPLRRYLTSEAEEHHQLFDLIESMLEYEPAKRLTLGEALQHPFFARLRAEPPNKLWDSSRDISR
Chain of Cytochrome P450 2C19 (P33261 whole entry): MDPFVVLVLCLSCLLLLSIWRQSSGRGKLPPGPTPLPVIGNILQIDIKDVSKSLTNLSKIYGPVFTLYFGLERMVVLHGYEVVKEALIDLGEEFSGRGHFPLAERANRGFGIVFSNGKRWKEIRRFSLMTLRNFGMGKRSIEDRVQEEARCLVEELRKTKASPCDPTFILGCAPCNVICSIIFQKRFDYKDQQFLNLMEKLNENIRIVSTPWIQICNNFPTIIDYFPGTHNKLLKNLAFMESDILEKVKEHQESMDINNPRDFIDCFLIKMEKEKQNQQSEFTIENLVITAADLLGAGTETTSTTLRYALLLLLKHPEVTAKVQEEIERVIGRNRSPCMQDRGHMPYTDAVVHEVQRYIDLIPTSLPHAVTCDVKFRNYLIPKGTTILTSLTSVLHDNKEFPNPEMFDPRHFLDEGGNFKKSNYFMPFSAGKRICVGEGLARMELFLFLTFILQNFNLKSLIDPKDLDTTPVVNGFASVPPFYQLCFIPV

IC50 [1]: 2 nM
Vd [2]: 0.4 L/kg
LBF [3]: 7.2%
half-life [4]: 3.9 h
IC50 (Cytochrome P450 2C9): 11400 nM
bioavailability [6]: 102%
Kd [7]: 89 nM
half-life [8]: 4.6 h
Kd [9]: 240 nM
half-life [10]: 3.8 h
LBF [12]: 1.4%
CLint scaled at 1 µM [13]: 29.9 mL/min/kg
Kd [14]: 210 nM
Kd [15]: 68 nM
bioavailability [16]: 87.4%
LBF [18]: 27%
IC50 (Cytochrome P450 2C19): 30800 nM
IC50 (MV4-11 [20]): 11.8 nM
Vd [21]: 1.2 L/kg
IC50 (CDK8/Cyclin C): 0.7 nM
IC50 (Cytochrome P450 2D6): 44200 nM
IC50 (Cytochrome P450 1A2): > 50000 nM
SMILES: Cc1n[nH]c2ccc(-c3nnc(C)n3Cc3ccc(C(F)(F)F)cc3)cc12
Activity (MV4-11 [5]): Active
inhibition in vivo at 3 mg/kg (MV4-11 [11]): 84.8%
inhibition in vivo at 1 mg/kg [17]: 46.1%
Activity (MV4-11 [19]): Active
Activity (MV4-11 [22]): Active
inhibition in vivo at 3 mg/kg (MC-38): 80.4%
